Laboratory results published in ChEMBL document CHEMBL1201862, “PubChem BioAssay data set” (2004).
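Results reflect a 48-hour exposure of cells in 96-well plates to compound at five concentrations. GI50: concentration for 50% inhibition of growth.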 Calls of active or inactive are those of the source. Cut-off read from the data, not from the text of the source: active = GI50 up to about 1.1 µM and inactive = higher.

Experiments:
Assay in all cases: NCI-60 cell line screen, 48 h
DMS-114 = test system: DMS-114
DMS-273 = test system: DMS-273
HOP-18 = test system: HOP-18
LXFL 529 = test system: LXFL 529
M19-MEL = test system: M19-MEL
XF498 = test system: XF498
SNB-78 = test system: SNB-78
RXF 631 = test system: RXF 631
KM-20L2 = test system: KM-20L2

Compound	GI50 (DMS-114)	GI50 (DMS-273)	GI50 (HOP-18)	GI50 (LXFL 529)	GI50 (M19-MEL)	GI50 (XF498)	GI50 (SNB-78)	GI50 (RXF 631)	GI50 (KM-20L2)
[O-][S+](Cc1ccccc1)c1nc2ccccc2nc1-c1cccs1 (stereo not given)	2.5 µM (inactive)	9.59 µM (inactive)	15.9 µM (inactive)	3.22 µM (inactive)	5.77 µM (inactive)	2.52 µM (inactive)	22 µM (inactive)		
CCCCC(C(=O)C(=O)Nc1ccccc1CC)C(=O)C(C)C (stereo not given)	> 100 µM (inactive)	> 100 µM (inactive)		> 100 µM (inactive)	> 100 µM (inactive)	> 100 µM (inactive)	> 100 µM (inactive)	> 100 µM (inactive)	> 100 µM (inactive)
CCCCC(=O)OC[n+]1ccc2c(C)c3[nH]c4ccccc4c3c(C)c2c1		0.147 µM (active)	1.34 µM (inactive)	0.855 µM (active)	1.07 µM (active)		0.796 µM (active)	1.07 µM (active)	0.687 µM (active)
O=C(COc1ccc(/C=C/C(=O)c2ccc(Cl)cc2)cc1)Nc1c(Cl)cccc1Cl	33.3 µM (inactive)		> 100 µM (inactive)	78.7 µM (inactive)	> 100 µM (inactive)		58.9 µM (inactive)	> 100 µM (inactive)	> 100 µM (inactive)
CC(C)OC(=O)Nc1c([N+](=O)[O-])cc(C(F)(F)F)cc1[N+](=O)[O-]		> 100 µM (inactive)	21.6 µM (inactive)	> 100 µM (inactive)		28.1 µM (inactive)	> 50 µM (inactive)		> 100 µM (inactive)
Cc1c(C(=O)/C=C/C=C/c2ccccc2)[n+]([O-])c2ccccc2[n+]1[O-]	25.6 µM (inactive)	32.2 µM (inactive)	45.2 µM (inactive)	18 µM (inactive)	34.3 µM (inactive)	35 µM (inactive)	42 µM (inactive)		38 µM (inactive)
O=C1C2=C(c3ccccc31)C(c1ccccc1Cl)N1C(=O)CCSC1=N2 (stereo not given)	> 100 µM (inactive)	> 100 µM (inactive)			> 100 µM (inactive)	79.3 µM (inactive)		> 100 µM (inactive)	> 100 µM (inactive)
CC(C)(C)C1=CC(=C(P(=O)(O)O)P(=O)(O)O)C=C(C(C)(C)C)C1=O	> 50 µM (inactive)	> 50 µM (inactive)	> 50 µM (inactive)	> 50 µM (inactive)	> 50 µM (inactive)		> 50 µM (inactive)	> 50 µM (inactive)	> 50 µM (inactive)
CC1=C(C)C(=O)c2c(cc3c4ccccc4ccn23)C1=O	> 100 µM (inactive)	> 100 µM (inactive)	> 100 µM (inactive)		> 100 µM (inactive)	63.8 µM (inactive)			> 100 µM (inactive)
CC1(C)C(=O)C(O)=CC2C1=CCC1C2(C)C(=O)CC2(C)C(C(C)(O)C(=O)CC(O)C(C)(C)O)C(O)CC12C (stereo not given)	6.67 µM (inactive)	2.85 µM (inactive)	2.51 µM (inactive)	3.64 µM (inactive)	8.85 µM (inactive)	3.28 µM (inactive)	3.78 µM (inactive)		3.33 µM (inactive)
C=CCSc1ncnc2c1ncn2C1OC(CO)C(O)C1O (stereo not given)	11.4 µM (inactive)	11.7 µM (inactive)	> 100 µM (inactive)		> 100 µM (inactive)	> 100 µM (inactive)	> 100 µM (inactive)		55.7 µM (inactive)
CCN(CC)c1ccc(Cl)c2c1C(O)(C(C)C)C2(C)C (stereo not given)	21.2 µM (inactive)	15.8 µM (inactive)	14 µM (inactive)	17 µM (inactive)	14.7 µM (inactive)		28.2 µM (inactive)		14 µM (inactive)
